Assay results published in ChEMBL document CHEMBL1127439, “Structure-activity relationship studies of central nervous system agents. 13. 4-[3-(Benzotriazol-1-yl)propyl]-1-(2-methoxyphenyl)piperazine, a new putative 5-HT1A receptor antagonist, and its analogs” (J Med Chem, 1994).

Experiments:
[1] = molecular target: T1, 5-hydroxytryptamine receptor 1A (Rattus norvegicus, UniProt P19327); assay: Tested in vitro for receptor binding affinity against 5-hydroxytryptamine 1A receptor using radioligand [3H]8-OH-DPAT
T1 sequence (P19327 whole entry): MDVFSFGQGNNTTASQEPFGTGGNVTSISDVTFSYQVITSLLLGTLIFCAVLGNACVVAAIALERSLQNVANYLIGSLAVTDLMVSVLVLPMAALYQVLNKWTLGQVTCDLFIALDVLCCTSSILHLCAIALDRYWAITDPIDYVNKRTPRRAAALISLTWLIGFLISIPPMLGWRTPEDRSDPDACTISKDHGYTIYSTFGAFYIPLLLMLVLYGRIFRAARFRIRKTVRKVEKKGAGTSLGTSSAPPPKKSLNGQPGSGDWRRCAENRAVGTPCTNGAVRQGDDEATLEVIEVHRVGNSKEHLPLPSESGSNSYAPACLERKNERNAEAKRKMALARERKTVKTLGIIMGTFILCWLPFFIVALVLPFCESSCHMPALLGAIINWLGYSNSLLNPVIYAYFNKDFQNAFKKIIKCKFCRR

[2] = molecular target: Serotonin 2 (5-HT2) receptor (Rattus norvegicus, UniProt P30994+P08909+P14842); assay: Tested in vitro for receptor binding affinity against 5-hydroxytryptamine 2 receptor using radioligand [3H]ketanserin; type: protein assay
[3] = species: Rattus norvegicus; assay: Selectivity is the ratio between Ki values of 5-HT2 and 5-HT1A
[4] = test system: Mus musculus; assay: Effect on body temperature in mice at intraperitoneal dosage of 10 mg/kg, (compound administered 30 min before the test) after 60 min; type: functional
[5] = test system: Mus musculus; assay: Effect on body temperature in mice at intraperitoneal dosage of 10 mg/kg, (compound administered 30 min before the test) after 45 min; type: functional
[6] = test system: Mus musculus; assay: Effect on body temperature in mice at intraperitoneal dosage of 10 mg/kg, (compound administered 30 min before the test) after 30 min; type: functional
[7] = test system: Mus musculus; assay: Effect on 8-OH-DPAT-induced hypothermia in mice (5 mg/kg) at intraperitoneal dosage of 10 mg/kg of compound after 15 mins; type: functional
[8] = test system: Mus musculus; assay: Effect on 8-OH-DPAT-induced hypothermia in mice (5 mg/kg) at intraperitoneal dosage of 10 mg/kg of compound after 30 mins; type: functional
[9] = test system: Mus musculus; assay: Effect on 8-OH-DPAT-induced hypothermia in mice (5 mg/kg) at intraperitoneal dosage of 10 mg/kg of compound after 45 mins.; type: functional
[10] = test system: Mus musculus; assay: Effect on 8-OH-DPAT-induced hypothermia in mice (5 mg/kg) at intraperitoneal dosage of 10 mg/kg of compound after 60 mins; type: functional
[11] = test system: Rattus norvegicus; assay: Tested for the effect on 8-OH-DPAT-induced behavior in reserpine pretreated rat against flat body posture at dosage of 10 mg/kg; type: functional
[12] = test system: Rattus norvegicus; assay: Tested for the effect on 8-OH-DPAT-induced behavior in reserpine pretreated rat against forepaw treading at dosage of 10 mg/kg; type: functional
[13] = test system: Rattus norvegicus; assay: Tested for the effect on 8-OH-DPAT-induced lower lip retraction (LLR) in rat at dosage of 10 mg/kg; type: functional
[14] = test system: Rattus norvegicus; assay: Tested for the induction of lower lip retraction (LLR) by the investigated compounds in rat at dosage of 10 mg/kg; type: functional
[15] = test system: Mus musculus; assay: Effect on body temperature in mice at intraperitoneal dosage of 16 mg/kg, (compound administered 30 min before the test) after 30 min; type: functional
[16] = test system: Mus musculus; assay: Effect on body temperature in mice at intraperitoneal dosage of 16 mg/kg, (compound administered 30 min before the test) after 60 min; type: functional
[17] = test system: Mus musculus; assay: Effect on body temperature in mice at intraperitoneal dosage of 16 mg/kg, (compound administered 30 min before the test) after 75 min; type: functional
[18] = test system: Mus musculus; assay: Effect on body temperature in mice at intraperitoneal dosage of 16 mg/kg, (compound administered 30 min before the test) after 90 min; type: functional
[19] = test system: Mus musculus; assay: Effect on 8-OH-DPAT-induced hypothermia in mice (5 mg/kg) at intraperitoneal dosage of 4 mg/kg of compound after 45 mins; type: functional
[20] = test system: Mus musculus; assay: Effect on 8-OH-DPAT-induced hypothermia in mice (5 mg/kg) at intraperitoneal dosage of 4 mg/kg of compound after 60 mins; type: functional
[21] = test system: Mus musculus; assay: Effect on 8-OH-DPAT-induced hypothermia in mice (5 mg/kg) at intraperitoneal dosage of 8 mg/kg of compound after 15 mins; type: functional
[22] = test system: Mus musculus; assay: Effect on 8-OH-DPAT-induced hypothermia in mice (5 mg/kg) at intraperitoneal dosage of 8 mg/kg of compound after 30 mins; type: functional
[23] = test system: Mus musculus; assay: Effect on 8-OH-DPAT-induced hypothermia in mice (5 mg/kg) at intraperitoneal dosage of 8 mg/kg of compound after 45 mins; type: functional
[24] = test system: Mus musculus; assay: Effect on 8-OH-DPAT-induced hypothermia in mice (5 mg/kg) at intraperitoneal dosage of 8 mg/kg of compound after 60 mins; type: functional
[25] = test system: Mus musculus; assay: Effect on body temperature in mice at intraperitoneal dosage of 8 mg/kg, (compound administered 30 min before the test) after 75 min; type: functional
[26] = test system: Mus musculus; assay: Effect on body temperature in mice at intraperitoneal dosage of 8 mg/kg, (compound administered 30 min before the test) after 90 min; type: functional
[27] = test system: Mus musculus; assay: effect on body temperature in mice at intraperitoneal dosage of 16 mg/kg, (compound administered 30 min before the test) after 45 min; type: functional
[28] = test system: Mus musculus; assay: Effect on 8-OH-DPAT-induced hypothermia in mice (5 mg/kg) at intraperitoneal dosage of 16 mg/kg of compound after 15 mins; type: functional
[29] = test system: Mus musculus; assay: Effect on 8-OH-DPAT-induced hypothermia in mice (5 mg/kg) at intraperitoneal dosage of 16 mg/kg of compound after 30 mins; type: functional
[30] = test system: Mus musculus; assay: Effect on 8-OH-DPAT-induced hypothermia in mice (5 mg/kg) at intraperitoneal dosage of 16 mg/kg of compound after 45 mins; type: functional
[31] = test system: Mus musculus; assay: Effect on 8-OH-DPAT-induced hypothermia in mice (5 mg/kg) at intraperitoneal dosage of 16 mg/kg of compound after 60 mins; type: functional
[32] = test system: Mus musculus; assay: Effect on 8-OH-DPAT-induced hypothermia in mice (5 mg/kg) at intraperitoneal dosage of 4 mg/kg of compound after 15 mins; type: functional
[33] = test system: Mus musculus; assay: Effect on 8-OH-DPAT-induced hypothermia in mice (5 mg/kg) at intraperitoneal dosage of 4 mg/kg of compound after 30 mins; type: functional
[34] = test system: Mus musculus; assay: Effect on body temperature in mice at intraperitoneal dosage of 4 mg/kg, (compound administered 30 min before the test) after 60 min; type: functional
[35] = test system: Mus musculus; assay: Effect on body temperature in mice at intraperitoneal dosage of 4 mg/kg, (compound administered 30 min before the test) after 75 min; type: functional
[36] = test system: Mus musculus; assay: Effect on body temperature in mice at intraperitoneal dosage of 4 mg/kg, (compound administered 30 min before the test) after 90 min; type: functional
[37] = test system: Mus musculus; assay: Effect on body temperature in mice at intraperitoneal dosage of 4 mg/kg, (compound administered 30 min before the test) after 30 min; type: functional
[38] = test system: Mus musculus; assay: Effect on body temperature in mice at intraperitoneal dosage of 8 mg/kg, (compound administered 30 min before the test) after 30 min; type: functional
[39] = test system: Mus musculus; assay: Effect on body temperature in mice at intraperitoneal dosage of 8 mg/kg, (compound administered 30 min before the test) after 45 min; type: functional
[40] = test system: Mus musculus; assay: Effect on body temperature in mice at intraperitoneal dosage of 8 mg/kg, (compound administered 30 min before the test) after 60 min; type: functional
[41] = test system: Rattus norvegicus; assay: Tested for the effect on 8-OH-DPAT-induced behavior in reserpine pretreated rat against flat body posture at dosage of 16 mg/kg; type: functional
[42] = test system: Rattus norvegicus; assay: Tested for the effect on 8-OH-DPAT-induced behavior in reserpine pretreated rat against flat body posture at dosage of 4 mg/kg; type: functional
[43] = test system: Rattus norvegicus; assay: Tested for the effect on 8-OH-DPAT-induced behavior in reserpine pretreated rat against flat body posture at dosage of 8 mg/kg; type: functional
[44] = test system: Rattus norvegicus; assay: Tested for the effect on 8-OH-DPAT-induced behavior in reserpine pretreated rat against forepaw treading at dosage of 16 mg/kg; type: functional
[45] = test system: Rattus norvegicus; assay: Tested for the effect on 8-OH-DPAT-induced behavior in reserpine pretreated rat against forepaw treading at dosage of 8 mg/kg; type: functional
[46] = test system: Rattus norvegicus; assay: Tested for the effect on 8-OH-DPAT-induced lower lip retraction (LLR) in rat at dosage of 16 mg/kg; type: functional
[47] = test system: Rattus norvegicus; assay: Tested for the effect on 8-OH-DPAT-induced lower lip retraction (LLR) in rat at dosage of 2 mg/kg; type: functional
[48] = test system: Rattus norvegicus; assay: Tested for the effect on 8-OH-DPAT-induced lower lip retraction (LLR) in rat at dosage of 4 mg/kg; type: functional
[49] = test system: Rattus norvegicus; assay: Tested for the effect on 8-OH-DPAT-induced lower lip retraction (LLR) in rat at dosage of 8 mg/kg; type: functional
[50] = test system: Rattus norvegicus; assay: Tested for the induction of lower lip retraction (LLR) by the investigated compounds in rat at dosage of 16 mg/kg; type: functional
[51] = test system: Rattus norvegicus; assay: Tested for the induction of lower lip retraction (LLR) by the investigated compounds in rat at dosage of 2 mg/kg; type: functional
[52] = test system: Rattus norvegicus; assay: Tested for the induction of lower lip retraction (LLR) by the investigated compounds in rat at dosage of 4 mg/kg; type: functional
[53] = test system: Rattus norvegicus; assay: Tested for the induction of lower lip retraction (LLR) by the investigated compounds in rat at dosage of 8 mg/kg; type: functional
[54] = test system: Mus musculus; assay: Effect on body temperature in mice at intraperitoneal dosage of 4 mg/kg, (compound administered 30 min before the test) after 45 min; type: functional
[55] = test system: Rattus norvegicus; assay: Tested for the effect on 8-OH-DPAT-induced behavior in reserpine pretreated rat against forepaw treading at dosage of 4 mg/kg; type: functional

SMILES: COc1ccccc1N1CCN(CCn2nc3ccccc3n2)CC1
- Ki [1]: 41 nM
- Ki [2]: 1760 nM
- Selectivity [3]: 43

SMILES: CCCN1CCN(c2ccccc2OC)CC1
- Ki [2]: 3290 nM
- Selectivity [3]: 13

SMILES: COc1ccccc1N1CCN(C[C@@H](C(=O)NC(C)(C)C)c2ccccc2)CC1
- Delta t [4]: 0.2 °C
- Delta t [5]: 0.2 °C
- Delta t [6]: 0.2 °C
- Delta t [7]: 0.2 °C
- Delta t [8]: 0 °C
- Delta t [9]: 0.3 °C
- Delta t [10]: 0.1 °C
- Behavioral score [11]: 9.7
- Behavioral score [12]: 1
- LLR score [13]: 0.8
- LLR score [14]: 0.1

SMILES: COc1ccccc1N1CCN(CCCn2nc3ccccc3n2)CC1
- Ki [1]: 24 nM
- Ki [2]: 1580 nM
- Delta t [15]: 0.2 °C
- Delta t [16]: 0.3 °C
- Delta t [17]: 0.4 °C
- Delta t [18]: 0.2 °C
- Delta t [19]: 0.9 °C
- Delta t [20]: 0.6 °C
- Delta t [21]: 2 °C
- Delta t [22]: 1.5 °C
- Delta t [23]: 0.9 °C
- Delta t [24]: 0.7 °C
- Delta t [25]: 0.3 °C
- Delta t [26]: 0.3 °C
- Delta t [27]: 0.3 °C
- Delta t [28]: 2.6 °C
- Delta t [29]: 2 °C
- Delta t [30]: 1.3 °C
- Delta t [31]: 0.9 °C
- Delta t [32]: 1.8 °C
- Delta t [33]: 1.4 °C
- Delta t [34]: 0.1 °C
- Delta t [35]: 0.2 °C
- Delta t [36]: 0.1 °C
- Delta t [37]: 0.1 °C
- Delta t [38]: 0.1 °C
- Delta t [39]: 0.2 °C
- Delta t [40]: 0.4 °C
- Behavioral score [41]: 12.4
- Behavioral score [42]: 13.8
- Behavioral score [43]: 11.8
- Behavioral score [44]: 4
- Behavioral score [45]: 4.8
- LLR score [46]: 2.2
- LLR score [47]: 2.3
- LLR score [48]: 1.8
- LLR score [49]: 1.8
- LLR score [50]: 0.3
- LLR score [51]: 0.2
- LLR score [52]: 0.2
- LLR score [53]: 0.4
- Selectivity [3]: 66
- Delta t [54]: 0.3 °C
- Behavioral score [55]: 8
